≈ marks a conversion by molar mass, not a printed value.

Holding throughout (assay type): cell-based
Assay [1] concerns Pseudomonas aeurginosa NCTC 10490. The experiment in a line: MIC, two-fold dilution method, Pseudomonas aeurginosa NCTC 10490. The following applies: 10^6 CFU per ml, 37° C., 18 to 20 hours; for Antibacterial Activity (MIC): Muller Hinton Broth; for MIC: NCTC10490, Muller Hinton Broth, read-out: Antibacterial Activity (MIC). As to the method: (§1) In order to illustrate the usefulness of the invented compounds, the minimal inhibitory concentrations-(MIC) thereof against standard strains were determined and compared with Cefotaxime, a known compound. Also, the in vitro antibacterial activity was determined by a two-fold dilution method as described below: That is, the two-fold serial dilutions of the compound were made and dispersed in Muller Hinton Broth medium. Standard test strain which had the 10^6 CFU per ml was inoculated on the medium, and was incubated at 37° C. for 18 to 20 hours.

The subject of assay [2] is Bacillus subtilis ATCC 6633. The experiment in a line: MIC, two-fold dilution method, Bacillus subtilis ATCC 6633. The following applies: 10^6 CFU per ml, 37° C., 18 to 20 hours; for Antibacterial Activity (MIC): Muller Hinton Broth; for MIC: ATCC6633, Muller Hinton Broth, read-out: Antibacterial Activity (MIC). As to the method: as §1
For assay [3], the system named is Klebsiella pneumoniae ATCC 10031. Kind of assay: MIC, two-fold dilution method, Klebsiella pneumoniae ATCC 10031. The conditions noted are these: 10^6 CFU per ml, 37° C., 18 to 20 hours; for Antibacterial Activity (MIC): Muller Hinton Broth; for MIC: ATCC10031, Muller Hinton Broth, read-out: Antibacterial Activity (MIC). As to the method:
as §1

Assay [4] has as its system Streptococcus faecalis ATCC 10541. Kind of assay: MIC, two-fold dilution method, Streptococcus faecalis ATCC 10541. The following applies: 10^6 CFU per ml, 37° C., 18 to 20 hours; for Antibacterial Activity (MIC): Muller Hinton Broth; for MIC: Enterococcus faecalis, ATCC10541, Muller Hinton Broth, read-out: Antibacterial Activity (MIC). How it is done: as §1
For assay [5], the system named is Staphylococcus aureus ATCC 65389. Kind of assay: MIC, two-fold dilution method, Staphylococcus aureus ATCC 65389. The following applies: 10^6 CFU per ml, 37° C., 18 to 20 hours; for Antibacterial Activity (MIC): Muller Hinton Broth; for MIC: ATCC65389, Muller Hinton Broth, read-out: Antibacterial Activity (MIC). As to the method: as §1
Assay [6] relates to Esherichia coli ATCC 25922. The experiment in a line: MIC, two-fold dilution method, Esherichia coli ATCC 25922. The conditions noted are these: Muller Hinton Broth, 10^6 CFU per ml, 37° C., 18 to 20 hours; for MIC: read-out: Antibacterial Activity (MIC). How it is done:
as §1

The subject of assay [7] is Staphylococcus epidermidis ATCC 12228. Kind of assay: MIC, two-fold dilution method, Staphylococcus epidermidis ATCC 12228. The conditions noted are these: 10^6 CFU per ml, 37° C., 18 to 20 hours; for Antibacterial Activity (MIC): Muller Hinton Broth; for MIC: ATCC12228, Muller Hinton Broth, read-out: Antibacterial Activity (MIC). How it is done: as §1

As to `C#CCO/N=C(\C(=O)NC1C(=O)N2C(C(=O)[O-])=C(CSc3cc[n+](CC=C)c4cc(N5CCNCC5C)c(F)cc34)CS[C@H]12)c1csc(N)n1` (stereo partly drawn) [Compound I-52, 7-[(Z)-2-(2-aminothiazol-4-yl)-2-(propargyloxyimino)acetamido]-3-[1-allyl-6-fluoro-7-(2-methylpiperazinyl)quinolinium-4-yl]thiomethyl-3-cephem-4-carboxylate], the “Antibacterial Activity (MIC)” value in assay [1] came to 1.56 µg/mL; in assay [2], 0.39 µg/mL; in assay [3], 1.56 µg/mL; in assay [4] it was 0.78 µg/mL; in assay [5] it was 3.13 µg/mL; in assay [6], 0.78 µg/mL. Besides, in assay [7], the “Antibacterial Activity (MIC)” value turned out to be 1.56 µg/mL.

Turning to `C=CCO/N=C(\C(=O)NC1C(=O)N2C(C(=O)[O-])=C(CSc3cc[n+](CC=C)c4cc(N5CCNCC5)c(F)cc34)CS[C@H]12)c1csc(N)n1` (stereo partly drawn) [Compound I-33, 7-[(Z)-2-(2-aminothiazol-4-yl)-2-(allyloxyimino)acetamido]-3-(1-allyl-6-fluoro-7-piperazinylquinolinium-4-yl)thiomethyl-3-cephem-4-carboxylate], the MIC came out at 3.13 µg/mL (≈ 4.32 µM) in assay [1]; 0.78 µg/mL (≈ 1.08 µM) in assay [2]; 1.56 µg/mL (≈ 2.15 µM) in assay [3]; 0.39 µg/mL (≈ 0.538 µM) in assay [4]; 0.78 µg/mL (≈ 1.08 µM) in assay [5]; 3.13 µg/mL (≈ 4.32 µM) in assay [6]. Further, the MIC in assay [7] turned out to be 1.56 µg/mL (≈ 2.15 µM).

For the compound `CO/N=C(\C(=O)NC1C(=O)N2C(C(=O)[O-])=C(CSc3cc[n+](C)c4cc(N5CCN(C)CC5)c(F)cc34)CSC12)c1csc(N)n1` (stereo not drawn) [Compound I-2, 7-[(Z)-2-(2-aminothiazol-4-yl)-2-(methoxyimino)acetamido]-3-[1-methyl-6-fluoro-7-(N-methylpiperazinyl)quinolinium-4-yl]thiomethyl-3-cephem-4-carboxylate], the MIC in assay [1] stood at 3.13 µg/mL (≈ 4.56 µM); in assay [2] it was 0.39 µg/mL (≈ 0.568 µM); in assay [3], 0.39 µg/mL (≈ 0.568 µM); in assay [4], 0.39 µg/mL (≈ 0.568 µM); in assay [5], 1.56 µg/mL (≈ 2.27 µM); in assay [6] it was 12.5 µg/mL (≈ 18.2 µM). Also, in assay [7], the MIC came to 0.78 µg/mL (≈ 1.14 µM).

`C#CCO/N=C(\C(=O)NC1C(=O)N2C(C(=O)[O-])=C(CSc3cc[n+](C)c4cc(N5CCN(C)CC5)c(F)cc34)CSC12)c1csc(N)n1` (stereo not drawn) [Compound I-38, 7-[(Z)-2-(2-aminothiazol-4-yl)-2-(propargyloxyimino)acetamido]-3-[1-methyl-6-fluoro-7-(N-methylpiperazinyl)quinolinium-4-yl]thiomethyl-3-cephem-4-carboxylate]: the MIC came out at 0.78 µg/mL (≈ 1.1 µM) in assay [1]; 0.78 µg/mL (≈ 1.1 µM) in assay [2]; 3.13 µg/mL (≈ 4.4 µM) in assay [3]; 0.2 µg/mL (≈ 0.281 µM) in assay [4]; 0.78 µg/mL (≈ 1.1 µM) in assay [5]; 0.39 µg/mL (≈ 0.549 µM) in assay [7].

As for `CCN1CCN(c2cc3c(cc2F)c(SCC2=C(C(=O)[O-])N4C(=O)C(NC(=O)/C(=N\OC)c5csc(N)n5)C4SC2)cc[n+]3C2CC2)CC1` (stereo not drawn) [Compound I-7, 7-[(Z)-2-(2-aminothiazol-4-yl)-2-(methoxyimino)acetamido]-3-3-[1-cyclopropyl-6-fluoro-7-(1-ethylpiperazinyl)quinolinium-4-yl]-thiomethyl-3-cephem-4-carboxylate], the MIC in assay [1] came out at 0.39 µg/mL (≈ 0.537 µM); in assay [2] it was 0.2 µg/mL (≈ 0.275 µM); in assay [3], 0.05 µg/mL (≈ 0.0688 µM); in assay [4], 0.05 µg/mL (≈ 0.0688 µM); in assay [5] it was 0.39 µg/mL (≈ 0.537 µM); in assay [6], 0.78 µg/mL (≈ 1.07 µM). Moreover, the MIC in assay [7] turned out to be 0.2 µg/mL (≈ 0.275 µM).

On to `C#CCO/N=C(\C(=O)NC1C(=O)N2C(C(=O)[O-])=C(CSc3cc[n+](C)c4cc(N5CCNCC5)c(F)cc34)CS[C@H]12)c1csc(N)n1` (stereo partly drawn) [Compound I-37, 7-[(Z)-2-(2-aminothiazol-4-yl)-2-(propargyloxyimino)acetamido]-3-(1-methyl-6-fluoro-7-piperazinylquinolinium-4-yl)thiomethyl-3-cephem-4-carboxylate], for which the MIC in assay [1] is 0.2 µg/mL (≈ 0.287 µM); in assay [2], 0.2 µg/mL (≈ 0.287 µM); in assay [3], 0.78 µg/mL (≈ 1.12 µM); in assay [4] it was 0.2 µg/mL (≈ 0.287 µM); in assay [5], 0.39 µg/mL (≈ 0.56 µM); in assay [7], 0.78 µg/mL (≈ 1.12 µM).

Consider `CC[n+]1ccc(SCC2=C(C(=O)[O-])N3C(=O)C(NC(=O)/C(=N\OC(C)(C)C(=O)O)c4csc(N)n4)[C@H]3SC2)c2cc(F)c(N3CCNCC3)cc21` (stereo partly drawn) [Compound I-53, 7-[(Z)-2-(2-aminothiazol-4-yl)-2-(2-carboxyprop-2-oxyimino)acetamido]-3-(1-ethyl-6-fluoro-7-piperazinylquinolinium-4-yl)thiomethyl-3-cephem-4-carboxylate], for which the “Antibacterial Activity (MIC)” value in assay [1] came to 1.56 µg/mL; in assay [2], 0.39 µg/mL; in assay [3], 1.56 µg/mL; in assay [4], 0.39 µg/mL; in assay [5], 3.13 µg/mL; in assay [7], 1.56 µg/mL.

On to `C#CCO/N=C(\C(=O)NC1C(=O)N2C(C(=O)[O-])=C(CSc3cc[n+](C)c4cc(N5CCNCC5C)c(F)cc34)CS[C@H]12)c1csc(N)n1` (stereo partly drawn) [Compound I-40, 7-[(Z)-2-(2-aminothiazol-4-yl)-2-(propargyloxyimino)acetamido]-3-[1-methyl-6-fluoro-7-(2-methylpiperazinyl)quinolinium-4-yl]thiomethyl-3-cephem-4-carboxylate], for which the “Antibacterial Activity (MIC)” value stood at 0.2 µg/mL in assay [1]; 0.2 µg/mL in assay [2]; 0.78 µg/mL in assay [3]; 0.2 µg/mL in assay [4]; 0.39 µg/mL in assay [5]; 0.1 µg/mL in assay [7].

For `C=CCO/N=C(\C(=O)NC1C(=O)N2C(C(=O)[O-])=C(CSc3cc[n+](C4CC4)c4cc(N5CCNCC5C)c(F)cc34)CS[C@H]12)c1csc(N)n1` (stereo partly drawn) [Compound I-28, 7-[(Z)-2-(2-aminothiazol-4-yl)-2-(allyloxyimino)acetamido]-3-[1-cyclopropyl-6-fluoro-7-(2-methylpiperazinyl)quinolinium-4-yl]thiomethyl-3-cephem-4-carboxylate], the “Antibacterial Activity (MIC)” value came out at 1.56 µg/mL in assay [1]; 0.39 µg/mL in assay [2]; 0.78 µg/mL in assay [3]; 0.2 µg/mL in assay [4]; 0.2 µg/mL in assay [5]; 0.2 µg/mL in assay [7].

Regarding `CO/N=C(\C(=O)NC1C(=O)N2C(C(=O)[O-])=C(CSc3cc[n+](C)c4cc(-n5cnc(C)c5)c(F)cc34)CSC12)c1csc(N)n1` (stereo not drawn) [Compound I-18, 7-[(Z)-2-(2-aminothiazol-4-yl)-2-(methoxyimino)acetamido]-3-[1-methyl-6-fluoro-7-(4-methylimidazolyl)quinolinium-4-yl]thiomethyl-3-cephem-4-carboxylate], the “Antibacterial Activity (MIC)” value in assay [1] stood at 1.56 µg/mL; in assay [2], 0.1 µg/mL; in assay [4], 0.2 µg/mL; in assay [5], 0.2 µg/mL; in assay [7], 0.2 µg/mL.

Take `C#CCO/N=C(\C(=O)NC1C(=O)N2C(C(=O)[O-])=C(CSc3cc[n+](C)c4cc(N5CCN(CC)CC5)c(F)cc34)CSC12)c1csc(N)n1` (stereo not drawn) [Compound I-39]: the MIC was determined as 0.2 µg/mL (≈ 0.276 µM) in assay [1]; 0.2 µg/mL (≈ 0.276 µM) in assay [2]; 0.78 µg/mL (≈ 1.08 µM) in assay [3]; 0.2 µg/mL (≈ 0.276 µM) in assay [4]; 0.39 µg/mL (≈ 0.538 µM) in assay [5]; 0.2 µg/mL (≈ 0.276 µM) in assay [7].

As for `C=CCO/N=C(\C(=O)NC1C(=O)N2C(C(=O)[O-])=C(CSc3cc[n+](C4CC4)c4cc(N5CCN(CC)CC5)c(F)cc34)CSC12)c1csc(N)n1` (stereo not drawn) [Compound I-27], the minimal inhibitory concentration (MIC) in assay [1] is 0.78 µg/mL (≈ 1.04 µM); in assay [2], 0.2 µg/mL (≈ 0.266 µM); in assay [3], 0.39 µg/mL (≈ 0.518 µM); in assay [4], 0.2 µg/mL (≈ 0.266 µM); in assay [5] it was 0.2 µg/mL (≈ 0.266 µM); in assay [7], 0.2 µg/mL (≈ 0.266 µM).

As for `CC[n+]1ccc(SCC2=C(C(=O)[O-])N3C(=O)C(NC(=O)/C(=N\OC(C)(C)C(=O)O)c4csc(N)n4)[C@H]3SC2)c2cc(F)c(-n3ccnc3)cc21` (stereo partly drawn) [Compound I-65, 7-[(Z)-2-(2-aminothiazol-4-yl)-2-(2-carboxyprop-2-oxyimino)acetamido]-3-(1-ethyl-6-fluoro-7-imidazolylquinolinium-4-yl)thiomethyl-3-cephem-4-carboxylate], the “Antibacterial Activity (MIC)” value in assay [1] is 1.56 µg/mL; in assay [2], 0.39 µg/mL; in assay [3] it was 1.56 µg/mL; in assay [4], 0.39 µg/mL; in assay [5] it was 1.56 µg/mL; in assay [7], 1.56 µg/mL.

What is called MIC is the least concentration at which growth counts as inhibited.

The values above are taken from patent US5663331A, “Cephalosporin compounds” (Il-Dong Pharm. Co., Ltd., priority 1992, dated 1997).
